# Where a name gives a salt, the structure may show the parent alone. Read-outs that look alike come from different tables or passages of the source. Marks after values point to notes of the source that are not given here.
# T1: human (Homo sapiens) HK-I (HsHK1) (Homo sapiens, UniProt P19367)
# T1 sequence (P19367 1-917): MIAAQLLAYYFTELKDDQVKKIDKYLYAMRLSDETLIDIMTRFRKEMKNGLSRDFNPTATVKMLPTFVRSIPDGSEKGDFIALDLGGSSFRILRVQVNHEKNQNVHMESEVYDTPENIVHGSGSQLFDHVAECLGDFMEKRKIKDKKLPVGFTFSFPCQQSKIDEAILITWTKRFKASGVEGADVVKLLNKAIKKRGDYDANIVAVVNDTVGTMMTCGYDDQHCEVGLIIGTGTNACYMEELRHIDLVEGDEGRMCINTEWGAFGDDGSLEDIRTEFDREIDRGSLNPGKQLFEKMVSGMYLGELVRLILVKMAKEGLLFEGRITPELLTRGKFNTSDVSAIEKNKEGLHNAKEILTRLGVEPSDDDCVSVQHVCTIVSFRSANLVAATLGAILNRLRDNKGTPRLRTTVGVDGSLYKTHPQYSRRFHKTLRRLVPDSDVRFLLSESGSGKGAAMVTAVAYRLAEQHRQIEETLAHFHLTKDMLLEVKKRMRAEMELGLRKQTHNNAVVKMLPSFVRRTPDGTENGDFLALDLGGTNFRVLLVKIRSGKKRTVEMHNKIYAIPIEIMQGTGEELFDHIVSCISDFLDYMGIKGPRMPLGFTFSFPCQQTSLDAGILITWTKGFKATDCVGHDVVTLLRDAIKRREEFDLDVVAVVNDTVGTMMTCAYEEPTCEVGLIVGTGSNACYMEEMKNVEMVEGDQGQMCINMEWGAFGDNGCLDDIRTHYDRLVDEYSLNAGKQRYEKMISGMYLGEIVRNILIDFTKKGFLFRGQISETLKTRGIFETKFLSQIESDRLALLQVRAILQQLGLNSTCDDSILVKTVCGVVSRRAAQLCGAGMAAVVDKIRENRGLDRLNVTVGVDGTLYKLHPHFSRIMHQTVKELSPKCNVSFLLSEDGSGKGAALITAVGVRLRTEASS
# T2: CpHK (Cryptosporidium parvum, UniProt Q5CWT5)
# T2 sequence (Q5CWT5 1-518): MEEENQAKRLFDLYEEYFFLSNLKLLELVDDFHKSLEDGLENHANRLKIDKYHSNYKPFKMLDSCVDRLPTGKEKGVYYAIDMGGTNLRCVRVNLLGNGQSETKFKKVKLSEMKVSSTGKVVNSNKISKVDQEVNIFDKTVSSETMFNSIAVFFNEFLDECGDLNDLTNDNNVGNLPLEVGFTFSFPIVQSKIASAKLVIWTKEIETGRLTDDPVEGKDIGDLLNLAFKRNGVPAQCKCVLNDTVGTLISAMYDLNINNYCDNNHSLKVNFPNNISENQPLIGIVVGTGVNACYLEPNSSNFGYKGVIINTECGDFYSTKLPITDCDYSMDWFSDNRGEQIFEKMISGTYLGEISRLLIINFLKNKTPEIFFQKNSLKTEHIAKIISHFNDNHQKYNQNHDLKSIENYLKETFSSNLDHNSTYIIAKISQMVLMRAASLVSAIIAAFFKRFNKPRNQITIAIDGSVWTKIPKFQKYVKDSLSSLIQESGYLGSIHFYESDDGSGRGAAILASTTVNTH
# T3: HsHK1 (Homo sapiens, UniProt P19367)
# T3 sequence (P19367 1-917): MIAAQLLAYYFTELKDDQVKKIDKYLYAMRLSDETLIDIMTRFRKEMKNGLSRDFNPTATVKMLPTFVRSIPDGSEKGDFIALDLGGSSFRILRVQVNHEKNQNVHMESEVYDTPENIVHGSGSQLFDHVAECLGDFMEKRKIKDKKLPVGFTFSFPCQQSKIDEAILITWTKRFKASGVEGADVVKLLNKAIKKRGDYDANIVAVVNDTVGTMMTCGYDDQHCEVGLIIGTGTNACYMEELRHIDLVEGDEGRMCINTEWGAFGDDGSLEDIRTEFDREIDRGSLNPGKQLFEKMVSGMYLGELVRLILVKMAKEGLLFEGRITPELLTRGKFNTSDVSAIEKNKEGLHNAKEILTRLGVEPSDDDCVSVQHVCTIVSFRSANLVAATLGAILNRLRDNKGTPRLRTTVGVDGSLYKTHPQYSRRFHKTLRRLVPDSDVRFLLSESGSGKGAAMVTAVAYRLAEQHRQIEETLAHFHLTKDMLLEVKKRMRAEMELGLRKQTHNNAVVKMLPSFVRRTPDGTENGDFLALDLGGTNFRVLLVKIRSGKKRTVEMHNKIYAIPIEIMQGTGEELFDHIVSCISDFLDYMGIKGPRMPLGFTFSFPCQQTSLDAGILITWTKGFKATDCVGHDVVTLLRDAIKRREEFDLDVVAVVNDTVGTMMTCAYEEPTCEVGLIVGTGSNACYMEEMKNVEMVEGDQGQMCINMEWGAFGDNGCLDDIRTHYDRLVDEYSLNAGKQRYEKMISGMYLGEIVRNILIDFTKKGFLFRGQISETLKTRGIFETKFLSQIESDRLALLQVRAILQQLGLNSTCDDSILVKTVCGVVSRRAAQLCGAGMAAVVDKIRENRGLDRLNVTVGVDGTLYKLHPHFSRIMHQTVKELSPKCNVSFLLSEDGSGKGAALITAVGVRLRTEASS
# Experiments:
# [1] = molecular target: T4, C. parvum hexokinase (CpHK) (Cryptosporidium parvum, UniProt Q5CWT5); assay: biochemical; type: biochemical; conditions: for Selectivity on enzyme: HsHK1 IC50 versus CpHK IC50; for Mode of inhibition of CpHK: inhibitory kinetics
# C. parvum [2] = assay: Efficacy against C. parvum growth in vitro in HCT-8 cells, qRT-PCR assay; conditions: for Safety Interval (TC50/EC50): HCT-8 TC50 / C. parvum EC50
# [3] = molecular target: T1, human (Homo sapiens) HK-I (HsHK1); assay: HsHK1 inhibition, HK/G6PDH-coupled assay; type: biochemical
# HCT-8 cells [4] = assay: Cytotoxicity on host cells, MTT assay
# C. parvum [5] = conditions: read-out: Efficacy on C. parvum (EC50); in vitro; ref Eltahan et al, 2018; cited from earlier work
# HCT-8 cells [6] = conditions: host cells; ref Eltahan et al, 2018; cited from earlier work
# CpHK = molecular target: T2, CpHK; assay: CpHK enzyme parameters towards substrates; type: biochemical
# HsHK1 = molecular target: T3, HsHK1; assay: HsHK1 enzyme parameters towards substrates; type: biochemical
# [7] = molecular target: T4, C. parvum hexokinase (CpHK); conditions: ref Yu et al. 2014, cited from earlier work
# [8] = substrate: OC[C@H]1OC(O)[C@H](O)[C@@H](O)[C@@H]1O; assay: HsHK1 enzyme parameters towards substrates; type: biochemical, Homo sapiens; conditions: other: compound as substrate, 37 °C, pH 7.5
# [9] = substrate: O=CC[C@@H](O)[C@H](O)[C@H](O)CO; assay: purified protein, by the assay type; conditions: other: compound as substrate, 37 °C, pH 7.5
# [10] = substrate: OC[C@H]1OC(O)[C@H](O)[C@@H](O)[C@@H]1O; assay: CpHK enzyme parameters towards substrates; type: biochemical, Cryptosporidium parvum; conditions: other: compound as substrate; pH 7.5
# [11] = substrate: O=CC[C@@H](O)[C@H](O)[C@H](O)CO; assay: CpHK enzyme parameters towards substrates; type: biochemical, Cryptosporidium parvum; conditions: other: compound as substrate; pH 7.5
# [12] = Cryptosporidium parvum, HCT-8, read-out: Efficacy on C. parvum (EC50)
# [13] = Cryptosporidium parvum, HCT-8, 44 h, read-out: In vitro efficacy (EC50)
molecule,measurement,setting,value
"CCCCC(CC)CNC(=N)NC(=N)NCCCCCCNC(=N)NC(=N)NCC(CC)CCCC (stereo not shown) [Alexidine•2HCl, alexidine dihydrochloride]",IC50,[1],22.1 µM
same,Selectivity on enzyme,[1],1.03
same,Mode of inhibition of CpHK,[1],noncompetitive inhibitor
same,EC50,C. parvum [2]; [12],8.1 µM
same,IC50,[3],22.7 µM
same,Cytotoxicity (TC50),HCT-8 cells [4]; host cells,32.6 µM
"O=c1c2ccccc2[se]n1-c1ccccc1 [Ebselen, 2-phenyl-1,2-benzisoselenazol-3(2H)-one]",IC50,[1],0.241 µM
same,Selectivity on enzyme,[1],1.10
same,Mode of inhibition of CpHK,[1],noncompetitive inhibitor
same,Reversibility of CpHK inhibition,"[1]; not reversed by up to 50-fold dilution, from 100 to 2 μM",irreversible inhibitor
same,IC50,[3],0.265 µM
same,EC50,C. parvum [5],165 µM
same,Cytotoxicity (TC50),HCT-8 cells [6],700 ^* μM
"O=CC[C@@H](O)[C@H](O)[C@H](O)COP(=O)(O)O [2DG6P, 2-deoxy-D-glucose-6-phosphate]",EC50,C. parvum [2]; [13],18000 µM
same,Safety Interval (TC50/EC50),C. parvum [2],>4.0
same,Cytotoxicity (TC50),HCT-8 cells [4]; 44 h treatment,>72000 µM
Oc1c(Cl)cc(Cl)c(Cl)c1Cc1c(O)c(Cl)cc(Cl)c1Cl [Hexachlorophene],IC50,[1],8.8 µM
same,Selectivity on enzyme,[1],0.74
same,Mode of inhibition of CpHK,[1],mixed model of inhibition
same,EC50,C. parvum [2]; [12],0.53 µM
same,IC50,[3],6.5 µM
same,Cytotoxicity (TC50),HCT-8 cells [4]; host cells,100 µM
"O=CC[C@@H](O)[C@H](O)[C@H](O)CO [2DG, 2-deoxy-D-glucose]",IC50,[1],5750 µM
same,EC50,C. parvum [2]; [13],540 µM
same,Safety Interval (TC50/EC50),C. parvum [2],66.7
same,Ratio (2DG/glucose) of CpHK Vmax,CpHK,0.72
same,Ratio (2DG/glucose) of CpHK Km,CpHK; fold lower affinity than for glucose,4.43
same,IC50,[3],10100 µM
same,Cytotoxicity (TC50),HCT-8 cells [4]; 44 h treatment,36000 µM
same,Ratio (2DG/glucose) of HsHK1 Km,HsHK1,9.81
same,Ratio (2DG/glucose) of HsHK1 Vmax,HsHK1,1.28
same,IC50,[7]; read-out: CpHK IC50,5750 µM
same,Ki,[7]; read-out: CpHK Ki,340 µM
same,Mode of inhibition of CpHK,[7],competitive inhibitor
C[CH2][Hg][S]c1ccccc1C(=O)[O-].[Na+] [Thimerosal],Mode of inhibition of CpHK,[1],mixed model of inhibition
same,IC50,"[1]; read-out: Inhibition on CpHK (IC50), 37 °C, 1% DMSO",2.3 µM
same,EC50,"C. parvum [2]; read-out: Efficacy on C. parvum (EC50), in vitro",1.77 µM
same,IC50,"[3]; read-out: Inhibition on HsHK1 (IC50), 37 °C, 1% DMSO",0.35 µM
same,Cytotoxicity (TC50),HCT-8 cells [4]; host cells,18.5 µM
"OC[C@H]1OC(O)[C@H](F)[C@@H](O)[C@@H]1O (stereo partly shown) [FDG, fluorodeoxyglucose]",IC50,"[1]; read-out: Effect on CpHK, IC50",3700 µM
same,Safety Interval (TC50/EC50),C. parvum [2],> 240
same,Safety Interval (TC50/EC50),C. parvum [2]; listed as 2FDG,>240
same,EC50,"C. parvum [2]; read-out: In vitro efficacy (EC50), 44 h infection assay",300 µM
same,IC50,"[3]; read-out: Effect on HsHK1, IC50, 37 °C",15200 µM
HsHK1 (Homo sapiens) (protein) MIAAQLLAYYFTELKDDQVKKIDKYLYAMRLSDETLIDIMTRFRKEMKNGLSRDFNPTATVKMLPTFVRSIPDGSEKGDFIALDLGGSSFRILRVQVNHEKNQNVHMESEVYDTPENIVHGSGSQLFDHVAECLGDFMEKRKIKDKKLPVGFTFSFPCQQSKIDEAILITWTKRFKASGVEGADVVKLLNKAIKKRGDYDANIVAVVNDTVGTMMTCGYDDQHCEVGLIIGTGTNACYMEELRHIDLVEGDEGRMCINTEWGAFGDDGSLEDIRTEFDREIDRGSLNPGKQLFEKMVSGMYLGELVRLILVKMAKEGLLFEGRITPELLTRGKFNTSDVSAIEKNKEGLHNAKEILTRLGVEPSDDDCVSVQHVCTIVSFRSANLVAATLGAILNRLRDNKGTPRLRTTVGVDGSLYKTHPQYSRRFHKTLRRLVPDSDVRFLLSESGSGKGAAMVTAVAYRLAEQHRQIEETLAHFHLTKDMLLEVKKRMRAEMELGLRKQTHNNAVVKMLPSFVRRTPDGTENGDFLALDLGGTNFRVLLVKIRSGKKRTVEMHNKIYAIPIEIMQGTGEELFDHIVSCISDFLDYMGIKGPRMPLGFTFSFPCQQTSLDAGILITWTKGFKATDCVGHDVVTLLRDAIKRREEFDLDVVAVVNDTVGTMMTCAYEEPTCEVGLIVGTGSNACYMEEMKNVEMVEGDQGQMCINMEWGAFGDNGCLDDIRTHYDRLVDEYSLNAGKQRYEKMISGMYLGEIVRNILIDFTKKGFLFRGQISETLKTRGIFETKFLSQIESDRLALLQVRAILQQLGLNSTCDDSILVKTVCGVVSRRAAQLCGAGMAAVVDKIRENRGLDRLNVTVGVDGTLYKLHPHFSRIMHQTVKELSPKCNVSFLLSEDGSGKGAALITAVGVRLRTEASS,Km,[8],27 µM
same,Vmax,[8],53.3 µmol/min
same,Km,[9],265 µM
same,Vmax,[9],68.4 µmol/min
CpHK (Cryptosporidium parvum Iowa II) (protein) MEEENQAKRLFDLYEEYFFLSNLKLLELVDDFHKSLEDGLENHANRLKIDKYHSNYKPFKMLDSCVDRLPTGKEKGVYYAIDMGGTNLRCVRVNLLGNGQSETKFKKVKLSEMKVSSTGKVVNSNKISKVDQEVNIFDKTVSSETMFNSIAVFFNEFLDECGDLNDLTNDNNVGNLPLEVGFTFSFPIVQSKIASAKLVIWTKEIETGRLTDDPVEGKDIGDLLNLAFKRNGVPAQCKCVLNDTVGTLISAMYDLNINNYCDNNHSLKVNFPNNISENQPLIGIVVGTGVNACYLEPNSSNFGYKGVIINTECGDFYSTKLPITDCDYSMDWFSDNRGEQIFEKMISGTYLGEISRLLIINFLKNKTPEIFFQKNSLKTEHIAKIISHFNDNHQKYNQNHDLKSIENYLKETFSSNLDHNSTYIIAKISQMVLMRAASLVSAIIAAFFKRFNKPRNQITIAIDGSVWTKIPKFQKYVKDSLSSLIQESGYLGSIHFYESDDGSGRGAAILASTTVNTH,Km,[10],46 µM
same,Vmax,[10],155 µmol/min
same,Km,[11],204 µM
same,Vmax,[11],112 µmol/min

# Reference: paper PMC6421115 (The Journal of eukaryotic microbiology, 2018)
